pEC50, pIC50: −log10 of the molar value. Calls of active or inactive are those of the source. The rule behind the calls is not given here.
Tested on: MB49
Assay: Antitumor activity against mouse MB49 cells xenografted in female C57BL/6 mouse assessed as reduction in tumor volume at 100 ug, IT(Intratumoral) followed by 10 Gy gamma irradiation
Format: functional, cell-based
Conditions: dose 100.0 µg

Row | SMILES | Activity
1 | N[C@@H]1C[C@H]2C(=O)N([C@H](CCC(=O)O)C(=O)NCc3ccc(Cl)c(Cl)c3)CCC(CCc3ccccc3)N2C1 (stereo not given in full) | Active

Tested on: not listed separately
Assay: Inhibition of human TREX1 exonuclease activity using labeled DNA oligonucleotide as substrate incubated for 30 mins and measured after 45 mins by fluorescence assay
Conditions: not given

Row | SMILES | pIC50 | IC50
2 | N[C@@H]1C[C@H]2C(=O)N([C@H](CCc3nnn[nH]3)C(=O)NCc3ccc(Cl)c(Cl)c3F)CCC(CCc3ccccc3)N2C1 (stereo not given in full) | > 6.00 | 
3 | N[C@@H]1C[C@H]2C(=O)N([C@H](CCC(=O)NO)C(=O)NCc3ccc(Cl)c(Cl)c3)CCC(COc3ccc(F)cc3)N2C1 (stereo not given in full) | > 6.00 | 
4 | N[C@@H]1C[C@H]2C(=O)N([C@@H]3CCCN(Cc4ccc(Cl)c(Cl)c4)C3=O)CCC(CCc3ccccc3)N2C1 (stereo not given in full) | > 6.00 | 
5 | N[C@@H]1C[C@H]2C(=O)N([C@H]3CCCN(Cc4ccc(Cl)c(Cl)c4)C3=O)CCC(CCc3ccccc3)N2C1 (stereo not given in full) | > 6.00 | 
6 | CCOC(=O)CC[C@H](C(=O)NCc1cc(Cl)c(Cl)cn1)N1CCC(CCc2ccccc2)N2C[C@H](N)C[C@H]2C1=O (stereo not given in full) | > 6.00 | 
7 | N[C@@H]1C[C@H]2C(=O)N([C@H]3CCCN(S(=O)(=O)c4ccc(Cl)c(Cl)c4)C3)CCC(CCc3ccccc3)N2C1 (stereo not given in full) |  | in the range around 1000 nM
8 | N#CC[C@H](C(=O)N1CCOC[C@@H]1c1ccccc1)N1CCC(CCc2ccccc2)N2C[C@H](N)C[C@H]2C1=O (stereo not given in full) |  | in the range around 10000 nM
9 | CS(=O)(=O)NCC[C@H](C(=O)NCc1ccc(Cl)c(Cl)c1)N1CCC(CCc2ccccc2)N2C[C@H](N)C[C@H]2C1=O (stereo not given in full) | > 6.00 | 
10 | N[C@@H]1C[C@H]2C(=O)N([C@H](CCC(=O)O)C(=O)NCc3ccc(Cl)c(Cl)c3)CCC(COc3ccccc3Cl)N2C1 (stereo not given in full) | > 6.00 | 
11 | N[C@@H]1C[C@H]2C(=O)N([C@H]3CCN(Cc4ccc(Cl)c(Cl)c4)C3=O)CCC(CCc3ccccc3)N2C1 (stereo not given in full) | > 6.00 | 
12 | N[C@@H]1C[C@H]2C(=O)N([C@H](CCC(=O)NO)C(=O)NCc3ccc(Cl)c(Cl)c3)CCC(COc3cccc(F)c3)N2C1 (stereo not given in full) | > 6.00 | 
13 | CCOC(=O)CC[C@H](C(=O)NCc1ccc(Cl)c(Cl)c1F)N1CCC(CCc2ccccc2)N2C[C@H](N)C[C@H]2C1=O (stereo not given in full) | > 6.00 | 
14 | CC(=O)NCC[C@H](C(=O)NCc1ccc(Cl)c(Cl)c1)N1CCC(CCc2ccccc2)N2C[C@H](N)C[C@H]2C1=O (stereo not given in full) | > 6.00 | 
15 | N[C@@H]1C[C@H]2C(=O)N([C@H](CCC(=O)O)C(=O)NCc3ccc(Cl)c(Cl)c3)CCC(COc3ccc(F)cc3)N2C1 (stereo not given in full) | > 6.00 | 
16 | COC(=O)CC[C@H](C(=O)NCc1ccc(Cl)c(Cl)c1)N1CCC(CCc2ccccc2)N2C[C@H](N)C[C@H]2C1=O (stereo not given in full) | > 6.00 | 
17 | N[C@@H]1C[C@H]2C(=O)N([C@H](CCC(=O)O)C(=O)NCc3ccc(Cl)c(Cl)c3)CCC(COc3ccccc3F)N2C1 (stereo not given in full) | > 6.00 | 
18 | N[C@@H]1C[C@H]2C(=O)N([C@H](CS(=O)(=O)c3ccccc3O)C(=O)NCc3ccc(Cl)c(Cl)c3)CCC(CCc3ccccc3)N2C1 (stereo not given in full) | > 6.00 | 
19 | CCOC(=O)CC[C@H](C(=O)NCc1ccc(Cl)c(Cl)n1)N1CCC(CCc2ccccc2)N2C[C@H](N)C[C@H]2C1=O (stereo not given in full) | > 6.00 | 
20 | N=C(N)NCCC[C@H](C(=O)NCc1ccc(Cl)c(Cl)c1)N1CCC(CCc2ccccc2)N2C[C@H](N)C[C@H]2C1=O (stereo not given in full) | > 6.00 | 

Row | SMILES | pIC50 | IC50
21 | N[C@@H]1C[C@H]2C(=O)N([C@H](CCC(=O)O)C(=O)NCc3ccc(Cl)c(Cl)c3F)CCC(CCc3ccccc3)N2C1 (stereo not given in full) | > 6.00 | 
22 | N#CC[C@H](C(=O)N1CCOC[C@H]1c1ccccc1)N1CCC(CCc2ccccc2)N2C[C@H](N)C[C@H]2C1=O (stereo not given in full) |  | in the range around 1000 nM
23 | CCOC(=O)N[C@@H]1C[C@H]2C(=O)N([C@H](CCC(=O)O)C(=O)NCc3ccc(Cl)c(Cl)c3)CCC(CCc3ccccc3)N2C1 (stereo not given in full) |  | in the range around 10000 nM
24 | CC(C)C[C@H](C(=O)NCc1ccc(F)c(F)c1)N1CCC(CCc2ccccc2)N2C[C@H](N)C[C@H]2C1=O (stereo not given in full) | > 6.00 | 
25 | N#CC[C@H](C(=O)N1CCc2cc(Cl)c(Cl)cc2C1)N1CCC(CCc2ccccc2)N2C[C@H](N)C[C@H]2C1=O (stereo not given in full) |  | in the range around 1000 nM
26 | CCOC(=O)CC[C@H](C(=O)N1CCC[C@H]1c1ccc(Cl)c(Cl)c1)N1CCC(CCc2ccccc2)N2C[C@H](N)C[C@H]2C1=O (mixture of isomers) | > 6.00 | 
27 | N#CCC[C@H](C(=O)NCc1ccc(Cl)c(Cl)c1)N1CCC(COc2ccc(F)cc2)N2C[C@H](N)C[C@H]2C1=O (stereo not given in full) | > 6.00 | 
28 | COC(=O)CC[C@H](C(=O)NCc1ccc(Cl)cn1)N1CCC(CCc2ccccc2)N2C[C@H](N)C[C@H]2C1=O (stereo not given in full) | > 6.00 | 
29 | CCOC(=O)CC[C@H](C(=O)N1CCCC[C@H]1c1ccc(Cl)c(Cl)c1)N1CCC(CCc2ccccc2)N2C[C@H](N)C[C@H]2C1=O (stereo not given in full) | > 6.00 | 
30 | N[C@@H]1C[C@H]2C(=O)N([C@H](CCC(=O)O)C(=O)NCc3ccc(Cl)c(Cl)c3)CCC(COc3cccc(Cl)c3)N2C1 (stereo not given in full) | > 6.00 | 
31 | N[C@@H]1C[C@H]2C(=O)N([C@@H]3CCCN(S(=O)(=O)c4ccccc4)C3)CCC(CCc3ccccc3)N2C1 (stereo not given in full) |  | in the range around 10000 nM
32 | COc1ccc(OCC2CCN([C@H](CCC(=O)O)C(=O)NCc3ccc(Cl)c(Cl)c3)C(=O)[C@@H]3C[C@@H](N)CN23)cc1 (stereo not given in full) |  | in the range around 1000 nM
33 | Cc1ccc(OCC2CCN([C@H](CCC(=O)O)C(=O)NCc3ccc(Cl)c(Cl)c3)C(=O)[C@@H]3C[C@@H](N)CN23)cc1 (stereo not given in full) |  | in the range around 1000 nM
34 | COc1c(CNC(=O)[C@@H](CCC#N)N2CCC(CCc3ccccc3)N3C[C@H](N)C[C@H]3C2=O)ccc(Cl)c1Cl (stereo not given in full) | > 6.00 | 
35 | N[C@@H]1C[C@H]2C(=O)N([C@H](CCC(=O)O)C(=O)NCc3ccc(Cl)c(Cl)c3)CCC(CCOc3ccccc3)N2C1 (stereo not given in full) |  | in the range around 1000 nM
36 | COc1c(CNC(=O)[C@@H](CCC(N)=O)N2CCC(CCc3ccccc3)N3C[C@H](N)C[C@H]3C2=O)ccc(Cl)c1Cl (stereo not given in full) | > 6.00 | 
37 | COc1ccc(CNC(=O)[C@@H](CC(C)C)N2CCC(CCc3ccccc3)N3C[C@H](N)C[C@H]3C2=O)cc1 (stereo not given in full) | > 6.00 | 
38 | N[C@@H]1C[C@H]2C(=O)N([C@H](CCNS(=O)(=O)C(F)(F)F)C(=O)NCc3ccc(Cl)c(Cl)c3)CCC(CCc3ccccc3)N2C1 (stereo not given in full) | > 6.00 | 

Tested on: not listed separately
Assay: Inhibition of TREX1 in human THP1-Dual cells assessed as activation of cGAS-STING pathway measured by ISRE luciferase reporter gene assay
Format: cell-based
Conditions: not given

Row | SMILES | pEC50
39 | N[C@@H]1C[C@H]2C(=O)N([C@H](CCc3nnn[nH]3)C(=O)NCc3ccc(Cl)c(Cl)c3F)CCC(CCc3ccccc3)N2C1 (stereo not given in full) | 6.00
40 | N[C@@H]1C[C@H]2C(=O)N([C@H](CCC(=O)O)C(=O)NCc3ccc(Cl)c(Cl)c3F)CCC(CCc3ccccc3)N2C1 (stereo not given in full) | 6.00
